# Test results from ChEMBL document CHEMBL5550178, “Synthesis and anticancer properties of novel dolastatin 10 analogs featuring five-membered heterocyclic rings with a linkable group at the C-terminus” (Bioorg Med Chem, 2024).
# Non-standard residues stand in square brackets, D forms with d. Residues, ends and D or L forms follow the SMILES beside them. Dolaproine = CO[C@@H]([C@@H]1CCCN1)[C@@H](C)C(=O)O; Dil = CC[C@H](C)[C@H](NC)[C@@H](CC(=O)O)OC; NMeV = CN[C@H](C(=O)O)C(C)C
# Columns and labels:
# [1] = Drug uptake in human PC-3 cells assessed as increase in fluorescence intensity at upto 1000 nM by Hoechst nuclear dye based fluorescent microscopic analysis; assay type: ADME, cell-based; settings: pc-3, 1 µM
# [2] = test system: PC-3; experiment: Induction of cell cycle arrest in human PC-3 cells assessed as accumulation of cells at S phase at 1000 nM measured after 8 days by PI staining based flow cytometry analysis (reference value: 12.9%); assay type: functional; settings: time 8 day
# [3] = test system: PC-3; experiment: Induction of cell cycle arrest in human PC-3 cells assessed as accumulation of cells at S phase at 1 nM measured after 8 days by PI staining based flow cytometry analysis (reference value: 12.9%); assay type: functional; settings: time 8 day
# [4] = test system: PC-3; experiment: Induction of cell cycle arrest in human PC-3 cells assessed as accumulation of cells at G1/G0 phase at 1000 nM measured after 8 days by PI staining based flow cytometry analysis (reference value: 73.2%); assay type: functional; settings: time 8 day
# [5] = test system: PC-3; experiment: Induction of cell cycle arrest in human PC-3 cells assessed as accumulation of cells at G1/G0 phase at 1000 nM measured after 6 days by PI staining based flow cytometry analysis (reference value: 79.8%); assay type: functional; settings: time 6 day
# [6] = test system: PC-3; experiment: Induction of cell cycle arrest in human PC-3 cells assessed as accumulation of cells at S phase at 50 nM measured after 6 days by PI staining based flow cytometry analysis (reference value: 8.60%); assay type: functional; settings: time 6 day
# [7] = test system: PC-3; experiment: Induction of cell cycle arrest in human PC-3 cells assessed as accumulation of cells at G2/M phase at 50 nM measured after 6 days by PI staining based flow cytometry analysis (reference value: 9.96%); assay type: functional; settings: time 6 day
# [8] = test system: PC-3; experiment: Induction of cell cycle arrest in human PC-3 cells assessed as accumulation of cells at G1/G0 phase at 50 nM measured after 6 days by PI staining based flow cytometry analysis (reference value: 79.8%); assay type: functional; settings: time 6 day
# [9] = test system: PC-3; experiment: Induction of cell cycle arrest in human PC-3 cells assessed as accumulation of cells at G1/G0 phase at 1 nM measured after 4 days by PI staining based flow cytometry analysis (reference value: 67.6%); assay type: functional; settings: time 4 day
# [10] = test system: PC-3; experiment: Induction of cell cycle arrest in human PC-3 cells assessed as accumulation of cells at S phase at 50 nM measured after 8 days by PI staining based flow cytometry analysis (reference value: 12.9%); assay type: functional; settings: time 8 day
# [11] = test system: PC-3; experiment: Induction of cell cycle arrest in human PC-3 cells assessed as accumulation of cells at G2/M phase at 1000 nM measured after 8 days by PI staining based flow cytometry analysis (reference value: 13.9%); assay type: functional; settings: time 8 day
# [12] = test system: PC-3; experiment: Induction of cell cycle arrest in human PC-3 cells assessed as accumulation of cells at G2/M phase at 1000 nM measured after 6 days by PI staining based flow cytometry analysis (reference value: 9.96%); assay type: functional; settings: time 6 day
# [13] = test system: PC-3; experiment: Induction of cell cycle arrest in human PC-3 cells assessed as accumulation of cells at S phase at 50 nM measured after 4 days by PI staining based flow cytometry analysis (reference value: 17.9%); assay type: functional; settings: time 4 day
# [14] = test system: PC-3; experiment: Induction of cell cycle arrest in human PC-3 cells assessed as accumulation of cells at G1/G0 phase at 50 nM measured after 8 days by PI staining based flow cytometry analysis (reference value: 73.2%); assay type: functional; settings: time 8 day
# [15] = test system: PC-3; experiment: Induction of cell cycle arrest in human PC-3 cells assessed as accumulation of cells at S phase at 1000 nM measured after 6 days by PI staining based flow cytometry analysis (reference value: 8.60%); assay type: functional; settings: time 6 day
# [16] = test system: PC-3; experiment: Induction of cell cycle arrest in human PC-3 cells assessed as accumulation of cells at G2/M phase at 1 nM measured after 8 days by PI staining based flow cytometry analysis (reference value: 13.9%); assay type: functional; settings: time 8 day
# [17] = test system: PC-3; experiment: Induction of cell cycle arrest in human PC-3 cells assessed as accumulation of cells at S phase at 1 nM measured after 6 days by PI staining based flow cytometry analysis (reference value: 8.60%); assay type: functional; settings: time 6 day
# [18] = test system: PC-3; experiment: Induction of cell cycle arrest in human PC-3 cells assessed as accumulation of cells at G2/M phase at 1000 nM measured after 4 days by PI staining based flow cytometry analysis (reference value: 10.7%); assay type: functional; settings: time 4 day
# [19] = test system: PC-3; experiment: Induction of cell cycle arrest in human PC-3 cells assessed as accumulation of cells at G2/M phase at 50 nM measured after 4 days by PI staining based flow cytometry analysis (reference value: 10.7%); assay type: functional; settings: time 4 day
# [20] = test system: PC-3; experiment: Induction of cell cycle arrest in human PC-3 cells assessed as accumulation of cells at S phase at 1 nM measured after 4 days by PI staining based flow cytometry analysis (reference value: 17.9%); assay type: functional; settings: time 4 day
# [21] = test system: PC-3; experiment: Induction of cell cycle arrest in human PC-3 cells assessed as accumulation of cells at S phase at 1000 nM measured after 4 days by PI staining based flow cytometry analysis (reference value: 17.9%); assay type: functional; settings: time 4 day
# [22] = test system: PC-3; experiment: Induction of cell cycle arrest in human PC-3 cells assessed as accumulation of cells at G2/M phase at 1 nM measured after 4 days by PI staining based flow cytometry analysis (reference value: 10.7%); assay type: functional; settings: time 4 day
# [23] = test system: PC-3; experiment: Induction of cell cycle arrest in human PC-3 cells assessed as accumulation of cells at G1/G0 phase at 1000 nM measured after 4 days by PI staining based flow cytometry analysis (reference value: 67.6%); assay type: functional; settings: time 4 day
# [24] = test system: PC-3; experiment: Induction of cell cycle arrest in human PC-3 cells assessed as accumulation of cells at G1/G0 phase at 1 nM measured after 8 days by PI staining based flow cytometry analysis (reference value: 73.2%); assay type: functional; settings: time 8 day
# [25] = test system: PC-3; experiment: Induction of cell cycle arrest in human PC-3 cells assessed as accumulation of cells at G2/M phase at 50 nM measured after 8 days by PI staining based flow cytometry analysis (reference value: 13.9%); assay type: functional; settings: time 8 day
# [26] = test system: PC-3; experiment: Induction of cell cycle arrest in human PC-3 cells assessed as accumulation of cells at G1/G0 phase at 50 nM measured after 4 days by PI staining based flow cytometry analysis (reference value: 67.6%); assay type: functional; settings: time 4 day
# [27] = test system: PC-3; experiment: Induction of cell cycle arrest in human PC-3 cells assessed as accumulation of cells at G1/G0 phase at 1 nM measured after 6 days by PI staining based flow cytometry analysis (reference value: 79.8%); assay type: functional; settings: time 6 day
# [28] = test system: PC-3; experiment: Induction of cell cycle arrest in human PC-3 cells assessed as accumulation of cells at G2/M phase at 1 nM measured after 6 days by PI staining based flow cytometry analysis (reference value: 9.96%); assay type: functional; settings: time 6 day
smiles,measurement,setting,value
CC[C@H](C)[C@@H]([C@@H](CC(=O)N1CCC[C@H]1[C@H](OC)[C@@H](C)C(=O)N[C@@H](Cc1ccccc1)c1nc(CNC(=O)CCC(=O)N2CCN(C(=O)c3ccccc3-c3c4ccc(=[N+](CC)CC)cc-4oc4cc(N(CC)CC)ccc34)CC2)cs1)OC)N(C)C(=O)[C@@H](NC(=O)[C@H](C(C)C)N(C)C)C(C)C (stereo in doubt),Drug uptake,[1],Active
CC[C@H](C)[C@@H]([C@@H](CC(=O)N1CCC[C@H]1[C@H](OC)[C@@H](C)C(=O)N[C@@H](Cc1ccccc1)C(=O)O)OC)N(C)C(=O)[C@@H](NC(=O)[C@@H](NC)C(C)C)C(C)C (H-[NMeV]V[Dil][Dolaproine]F-OH),Activity,[2],60.7%
same,Activity,[3],19%
same,Activity,[4],27.5%
same,Activity,[5],44.7%
same,Activity,[6],20.2%
same,Activity,[7],5.39%
same,Activity,[8],70.6%
same,Activity,[9],68.9%
same,Activity,[10],32%
same,Activity,[11],12.6%
same,Activity,[12],3.87%
same,Activity,[13],30.1%
same,Activity,[14],50.8%
same,Activity,[15],47.6%
same,Activity,[16],17.2%
same,Activity,[17],11.8%
same,Activity,[18],3.87%
same,Activity,[19],8.23%
same,Activity,[20],20.8%
same,Activity,[21],47.6%
same,Activity,[22],7.89%
same,Activity,[23],44.7%
same,Activity,[24],65.8%
same,Activity,[25],18.4%
same,Activity,[26],58.5%
same,Activity,[27],75.5%
same,Activity,[28],10.6%
